Data reported in paper PMC4594923, “Food Polyphenols Fail to Cause a Biologically Relevant Reduction of COX-2 Activity” (PLoS ONE, 2015).
Marks after values point to notes of the source that are not given here.

Legend:
ovine recombinant COX–1 = target: T1, ovine recombinant COX–1 (Ovis aries, UniProt P05979); assay: cell-free COX–1 enzyme assay (PGE2 formation, LC-MS); type: biochemical; set-up: purchased Cayman Chemicals/ Biomol, Hamburg, Germany
T1 sequence (P05979 25-600): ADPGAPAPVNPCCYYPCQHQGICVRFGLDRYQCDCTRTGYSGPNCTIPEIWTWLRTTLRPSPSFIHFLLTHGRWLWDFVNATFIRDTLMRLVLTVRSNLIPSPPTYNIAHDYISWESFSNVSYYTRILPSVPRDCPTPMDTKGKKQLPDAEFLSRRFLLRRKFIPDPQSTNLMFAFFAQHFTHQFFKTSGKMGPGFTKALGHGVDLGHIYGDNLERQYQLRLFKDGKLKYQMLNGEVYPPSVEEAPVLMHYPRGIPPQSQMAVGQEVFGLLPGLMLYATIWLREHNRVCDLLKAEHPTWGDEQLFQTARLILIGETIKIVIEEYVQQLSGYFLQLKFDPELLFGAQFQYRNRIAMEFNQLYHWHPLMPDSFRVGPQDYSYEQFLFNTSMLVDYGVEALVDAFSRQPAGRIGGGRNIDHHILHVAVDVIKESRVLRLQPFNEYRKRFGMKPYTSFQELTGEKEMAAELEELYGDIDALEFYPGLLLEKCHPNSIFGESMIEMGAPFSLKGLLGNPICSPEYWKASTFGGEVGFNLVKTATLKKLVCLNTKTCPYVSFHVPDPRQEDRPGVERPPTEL

[1] = test system: arachidonic acid (AA) cascade; assay: liver tissue oxylipin/PG levels in LPS induced sepsis in mice; type: in vivo, C57BL/6N mice; settings: liver tissue 24 h after LPS treatment;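 also: male C57BL/6N mice pretreated i.p. with polyphenols at 100 mg/kg bw or vehicle before LPS, liver oxylipins measured by LC-MS after solid-phase extraction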

## O=c1cc(-c2ccc(O)cc2)oc2cc(O)cc(O)c12 [Apigenin, apigenin]
Ovine recombinant COX–1; 100 μM
  decreased PGE2 formation in comparison to the control, COX–1: 31%
Ovine recombinant COX–1; up to 100 μM
  inhibition, COX–1 enzyme assay: inhibition < 50%(up to 100 μM)
[1]; mean
  4,5-DiHDPE concentration: 74 nM
  4-HDHA concentration: 12 nM
  5(6)-EpETrE concentration: 97 nM
  5,6-DiHETE concentration: < 0.30 nM
  5,6-DiHETrE concentration: 5.1 nM
  5-HEPE concentration: 2.8 nM
  5-HETE concentration: 2.8 nM
  5-iPF2α concentration: 1.1 nM
  5-oxo-ETE concentration: 15 nM
  6-keto-PGF1α concentration: 32 nM
  7,8-DiHDPE concentration: 5.2 nM
  7-HDHA concentration: 3.2 nM
  8(9)-EpETE concentration: 2.1 nM
  8(9)-EpETrE concentration: 20 nM
  8,9-DiHETE concentration: 2.3 nM
  8,9-DiHETrE concentration: 10 nM
  8,15-DiHETE concentration: < 0.80 nM
  8-HDHA concentration: 20 nM
  8-HEPE concentration: 0.98 nM
  8-HETE concentration: 8.5 nM
  8-iPF2α concentration: 2.1 nM
  9(10)-EpODE concentration: 11 nM
  9(10)-EpOME concentration: 120 nM
  9(10)-Epoxystearic acid concentration: 86 nM
  9,10,13-TriHOME concentration: 6.4^* nM
  9,10-DiHODE concentration: 8.6 nM
  9,10-DiHOME concentration: 69 nM
  9,10-Dihydroxystearic acid concentration: 53 nM
  9,12,13-TriHOME concentration: 41 nM
  9-HETE concentration: 5.2 nM
  9-HODE concentration: 370 nM
  9-HOTrE concentration: 8.1 nM
  9-oxo-ODE concentration: 120 nM
  10(11)-EpDPE concentration: 30 nM
  10,11-DiHDPE concentration: 9.8 nM
  10-HDHA concentration: 5.7 nM
  11(12)-EpETE concentration: 4.4 nM
  11(12)-EpETrE concentration: 47 nM
  11,12-DiHETE concentration: 2.9 nM
  11,12-DiHETrE concentration: 18 nM
  11-HDHA concentration: 5.5 nM
  11-HETE concentration: 21 nM
  12(13)-EpODE concentration: 5.0 nM
  12(13)-EpOME concentration: 99 nM
  12,13-DiHODE concentration: 5.7 nM
  12,13-DiHOME concentration: 140^† nM
  12-HEPE concentration: 27 nM
  12-HETE concentration: 120 nM
  13(14)-EpDPE concentration: 24 nM
  13,14-DiHDPE concentration: 11 nM
  13,14-dihydro-15-keto-PGE1 concentration: 0.57 nM
  13,14-dihydro-15-keto-PGF2α concentration: 7.0 nM
  13-HDHA concentration: 10 nM
  13-HODE concentration: 370 nM
  13-HOTrE concentration: 18 nM
  13-oxo-ODE concentration: 16 nM
  14(15)-EpETE concentration: 3.1 nM
  14(15)-EpETrE concentration: 38 nM
  14,15-DiHETE concentration: 7.4 nM
  14,15-DiHETrE concentration: 43 nM
  14-HDHA concentration: 68 nM
  15(16)-EpODE concentration: 24 nM
  15(S)-HETrE concentration: 9.0 nM
  15,16-DiHODE concentration: 49 nM
  15-HEPE concentration: 3.4 nM
  15-HETE concentration: 31 nM
  15-oxo-ETE concentration: 4.0 nM
  16(17)-EpDPE concentration: 23 nM
  16,17-DiHDPE concentration: 22 nM
  16-HDHA concentration: 6.0 nM
  17(18)-EpETE concentration: 4.2 nM
  17,18-DiHETE concentration: 15 nM
  17-HDHA concentration: 21 nM
  18-HEPE concentration: 3.3 nM
  19(20)-EpDPE concentration: 33 nM
  19,20-DiHDPE concentration: 110 nM
  20-HDHA concentration: 22 nM
  20-HEPE concentration: 15 nM
  20-HETE concentration: 7.2 nM
  EKODE concentration: 28 nM
  PGD1 concentration: 1.2 nM
  PGD2 concentration: 34 nM
  PGE1 concentration: 2.3 nM
  PGE2 concentration: 15 nM
  PGF1α concentration: 2.8 nM
  TXB2 concentration: 17 nM
  TxB3 concentration: 0.89 nM
  dihomo-PGF2α concentration: 3.6 nM
[1]; mean (first listing, r6)
  PGF2α concentration: 26 nM
[1]; mean (second listing, r9)
  PGF2α concentration: 26 nM
